Experimental data reported in patent publication US20230126298A1, “DEUYERATED TRYPTAMINE DERIVATIVE FORMULATIONS AND METHODS OF USE” (priority 2020, published 2023).

Assays:
[1] = Metabolic stability in rat liver microsomes (RLM); settings: for RLM, metabolized or not (R / NR): last time point 120 min; for RLM, % (half-life as % vs. the related nondeuterated compound): values in square brackets are within 10% (assay's accuracy), no deuteration effect; for metabolic stability in RLM, in words: deuterated vs. comparator
[2] = molecular target: T1, hrMAO-A (Homo sapiens, UniProt P21397); assay: Metabolic stability in the presence of hrMAO-A; type: in vitro ADME; settings: for MAO, metabolized or not (R / NR): last time point 120 min
T1 construct: purchased XenoTech Lot #8213001
T1 sequence (P21397 1-527): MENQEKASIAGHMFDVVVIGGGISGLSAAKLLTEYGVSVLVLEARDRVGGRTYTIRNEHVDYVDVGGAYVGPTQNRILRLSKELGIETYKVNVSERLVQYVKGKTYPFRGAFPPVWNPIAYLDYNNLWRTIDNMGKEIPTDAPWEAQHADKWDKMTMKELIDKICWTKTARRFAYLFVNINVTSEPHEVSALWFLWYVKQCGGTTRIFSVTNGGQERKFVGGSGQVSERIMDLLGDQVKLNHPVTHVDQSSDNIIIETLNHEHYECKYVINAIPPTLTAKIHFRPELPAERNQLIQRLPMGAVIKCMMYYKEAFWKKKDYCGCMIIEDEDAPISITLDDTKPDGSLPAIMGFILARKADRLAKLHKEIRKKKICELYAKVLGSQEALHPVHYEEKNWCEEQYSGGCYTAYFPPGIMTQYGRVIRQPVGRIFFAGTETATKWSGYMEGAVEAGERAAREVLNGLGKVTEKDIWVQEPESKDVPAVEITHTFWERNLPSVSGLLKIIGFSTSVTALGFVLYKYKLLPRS
Description: The reaction mixture was prepared as described below. The co-dosed TAs were added into the reaction mixture at a final concentration of 1 microM each. The positive control, kynuramine (25 microM), was run simultaneously with the TAs in a separate reaction. The reaction mixture (without TAs or kynuramine) was equilibrated in a shaking water bath at 37° C. for 5 minutes. The reaction was initiated by the addition of the TAs or kynuramine, and the mixture was incubated in a shaking water bath at 37° C. Aliquots (100 microL) of the TA reaction mixture were withdrawn at 0, 5, 10, 20, 30, 60, and 120 minutes. Aliquots (100 microL) of the positive control reaction mixture were withdrawn at 0 and 30 minutes. TA and kynuramine samples were immediately combined with 100 microL of ice-cold 100% MeCN containing 0.1% formic acid and IS to terminate the reaction. The samples were then mixed and centrifuged to precipitate proteins. All TA samples were assayed by LC-HRAMS. The PARR (analyte to IS) at each time point was compared to the PARR at time 0 to determine the percent remaining at each time point. Reaction composition: hrMAO 0.02 mg/mL; Potassium Phosphate, pH 7.4 100 mM; Magnesium Chloride 5 mM; Test Articles (each) 1 microM.

[3] = oral; cited from earlier work
[4] = PK study in rats, cassette dosing, oral gavage or catheter; type: in vivo; settings: rat, 5 mg/kg, % change vs. non-deuterated material; for Deuterium kinetic isotope effect (% change) F: bioavailability
Description: (§1) The key PK parameters (presented as a % change vs. non-deuterated materials) are presented in Table 3 to include half-life (T1/2), area under the curve (AUC), bioavailability (F) and blood-to-plasma ration (BPR). Pharmacokinetics of the deuterated tryptamines was studied in rats. In a typical experiment, run as a cassette dosing, two groups of 5 Wistar female rats (200-250 g) with surgically inserted jugular vein catheter (Charles River, Andover, Mass.) were fasted for 12 h and then administered 5 mg/kg of the deuterated and 5 mg/kg of the related non-deuterated analog, by oral gavage or via a catheter for each group. At time points 0, 15, 30, 60 min, and 2, 4, 8, and 24 h, the resulting plasma was analyzed for the parent molecule using LC/MS spectroscopy. Two separate groups of 5 animals were used for determining blood-to-plasma ratio (BPR). Each group was sacrificed at time points 15 and 30 min, respectively, and the concentration of the parent drug was determined in the […] and plasma by LC/MS spectroscopy.

[5] = Blood-to-plasma ratio (BPR), drug in brain and plasma of rats; type: in vivo; settings: rat, % change vs. non-deuterated material
Description: as §1

Structure (SMILES): C=CCN(CC=C)CCc1c[nH]c2ccccc12
- RLM, metabolized or not (R / NR) ([1]; RLM): R

Structure (SMILES): C=CCNCCc1c[nH]c2ccccc12
- RLM, metabolized or not (R / NR) ([1]; RLM): R

Structure (SMILES): [2H]C([2H])([2H])C([2H])([2H])NC([2H])([2H])C([2H])([2H])c1c[nH]c2cccc(O)c12
- RLM, % (half-life as % vs. the related nondeuterated compound) ([1]; RLM): [93] %

Structure (SMILES): CCN(CC)CCc1c[nH]c2ccccc12
- RLM, metabolized or not (R / NR) ([1]; RLM): R

Structure (SMILES): [2H]C([2H])(c1c[nH]c2ccc(OC)cc12)C([2H])([2H])N(CC)CC
- RLM, % (half-life as % vs. the related nondeuterated compound) ([1]; RLM): [95] %

Structure (SMILES): CCN(CC)CCc1c[nH]c2ccc(OC)cc12
- RLM, metabolized or not (R / NR) ([1]; RLM): R

Structure (SMILES): CCN(CC)CCc1c[nH]c2ccc(O)cc12
- RLM, metabolized or not (R / NR) ([1]; RLM): R

Structure (SMILES): CCN(CC)CCc1c[nH]c2cccc(OC)c12
- RLM, metabolized or not (R / NR) ([1]; RLM): R

Structure (SMILES): [2H]c1ccc2[nH]c([2H])c(CCN([2H])CC)c2c1O
- RLM, metabolized or not (R / NR) ([1]; RLM): R

Structure (SMILES): [2H]C([2H])(NCC)C([2H])([2H])c1c[nH]c2ccccc12
- MAO, % (half-life as % vs. the related nondeuterated compound) ([2]; MAO-A, values in square brackets are within 10% (assay's accuracy), no deuteration effect): 140%

Structure (SMILES): [2H]C([2H])(NCC)C([2H])([2H])c1c[nH]c2cccc(O)c12
- RLM, % (half-life as % vs. the related nondeuterated compound) ([1]; RLM): [94] %

Structure (SMILES): CCNCCc1c[nH]c2cccc(O)c12
- RLM, metabolized or not (R / NR) ([1]; RLM): R

Structure (SMILES): [2H]C([2H])(c1c[nH]c2cccc(OC)c12)C([2H])([2H])N(C)C
- RLM, % (half-life as % vs. the related nondeuterated compound) ([1]; RLM): 190%

Structure (SMILES): [2H]C([2H])(NC)C([2H])([2H])c1c[nH]c2cccc(O)c12
- RLM, % (half-life as % vs. the related nondeuterated compound) ([1]; RLM): 160%

Structure (SMILES): CC(C)NCCc1c[nH]c2ccccc12
- RLM, metabolized or not (R / NR) ([1]; RLM): R

Structure (SMILES): CC(C)NCCc1c[nH]c2cccc(O)c12
- RLM, metabolized or not (R / NR) ([1]; RLM): R

Structure (SMILES): [2H]C([2H])(c1c[nH]c2cccc(O)c12)C([2H])([2H])N(C(C)C)C(C)C
- RLM, % (half-life as % vs. the related nondeuterated compound) ([1]; RLM): [97] %

Structure (SMILES): CC(C)N(CCc1c[nH]c2cccc(O)c12)C(C)C
- RLM, metabolized or not (R / NR) ([1]; RLM): R

Structure (SMILES): COc1cc(CCNCc2ccccc2OC)c(OC)cc1Cl [2C-C-NBOMe, 2-(4-Chloro-2,5-dimethoxyphenyl)-N-[(2-methoxyphenyl)methyl]ethan-1-amine]
- orally active dose [3]: ≥ 25 µg

Structure (SMILES): [2H]C([2H])(Cc1c[nH]c2ccc(OC)cc12)N(C)C [5-MeO-DMT-α,α-d2]
- Deuterium kinetic isotope effect (% change) AUC [4]: 60%
- Deuterium kinetic isotope effect (% change) T1/2 [4]: 30%
- Deuterium kinetic isotope effect (% change) F [4]: 200%
- Deuterium kinetic isotope effect (% change) BPR, 15 min [5]: 120%
- Deuterium kinetic isotope effect (% change) BPR, 30 min [5]: 180%

Structure (SMILES): CN(C)CCc1c[nH]c2ccccc12 [DMT, reference compound]
- % Remaining of Initial 0 min ([2]; hrMAO-A, Table 3): 100%
- Half-life ([2]; hrMAO-A, Table 3): 0.453 h
- % Remaining of Initial 0 min ([1]; RLM, Table 2): 100%
- % Remaining of Initial 20 min ([1]; RLM, 20 min, Table 2): 41.0%

Structure (SMILES): [2H]C([2H])(Cc1c[nH]c2ccccc12)N(C)C [DMT-d2]
- % Remaining of Initial 0 min ([2]; hrMAO-A, Table 3): 100%
- % Remaining of Initial 60 min ([2]; hrMAO-A, 60 min, Table 3): 76.0%
- Half-life ([2]; hrMAO-A, Table 3): > 2 h
- % Remaining of Initial 0 min ([1]; RLM, Table 2): 100%
- % Remaining of Initial 60 min ([1]; RLM, 60 min, Table 2): 32.0%

Structure (SMILES): [2H]C([2H])(c1c[nH]c2ccccc12)C([2H])([2H])N(C)C [DMT-d4]
- % Remaining of Initial 0 min ([2]; hrMAO-A, Table 3): 100%
- Half-life ([2]; hrMAO-A, Table 3): > 2 h
- % Remaining of Initial 0 min ([1]; RLM, Table 2): 100%

Structure (SMILES): [2H]C([2H])([2H])N(C([2H])([2H])[2H])C([2H])([2H])C([2H])([2H])c1c[nH]c2ccccc12 [DMT-d10]
- metabolism in the MAO-A enzymatic assay, in words [2]: superiority
- % Remaining of Initial 0 min ([2]; hrMAO-A, Table 3): 100%
- % Remaining of Initial 0 min ([2]; hrMAO-A, Table 5 (d8 and d10 analogs)): 100.0%
- % Remaining of Initial 5 min ([2]; hrMAO-A, 5 min, Table 5): 99.0%
- Half-life ([2]; hrMAO-A, Table 3): > 2 h
- Half-life ([2]; hrMAO-A, Table 5): > 2 h
- % Remaining of Initial 0 min ([1]; RLM, Table 2): 100%
- % Remaining of Initial 0 min ([1]; RLM, Table 4 (d8 and d10 analogs)): 100%
- % Remaining of Initial 10 min ([1]; RLM, 10 min, Table 4): 56.0%
- metabolic stability in RLM, in words [1]: Further enhancement of metabolic stability

Structure (SMILES): [2H]c1[nH]c2c([2H])c([2H])c([2H])c([2H])c2c1C([2H])([2H])C([2H])([2H])N(C([2H])([2H])[2H])C([2H])([2H])[2H] [DMT-d15]
- metabolic stability in RLM, in words [1]: no improvement in half-life

Structure (SMILES): [2H]C([2H])(Cc1c[nH]c2cccc(O)c12)N(C)C [PI-α,α-d2]
- Deuterium kinetic isotope effect (% change) AUC [4]: 75%
- Deuterium kinetic isotope effect (% change) T1/2 [4]: 50%
- Deuterium kinetic isotope effect (% change) F [4]: 45%
- Deuterium kinetic isotope effect (% change) BPR, 15 min [5]: 100%
- Deuterium kinetic isotope effect (% change) BPR, 30 min [5]: 150%

Structure (SMILES): CCNCCc1c[nH]c2ccccc12 [reference compound]
- MAO, metabolized or not (R / NR) ([2]; MAO-A): R
- RLM, metabolized or not (R / NR) ([1]; RLM): R

Structure (SMILES): CCN(C)CCc1c[nH]c2ccccc12 [reference compound]
- MAO, metabolized or not (R / NR) ([2]; MAO-A): R
- RLM, metabolized or not (R / NR) ([1]; RLM): R

Structure (SMILES): CCN(C)CCc1c[nH]c2ccc(OC)cc12 [reference compound]
- MAO, metabolized or not (R / NR) ([2]; MAO-A): R
- RLM, metabolized or not (R / NR) ([1]; RLM): R

Structure (SMILES): CCN(C)CCc1c[nH]c2ccc(O)cc12 [reference compound]
- MAO, metabolized or not (R / NR) ([2]; MAO-A): R
- RLM, metabolized or not (R / NR) ([1]; RLM): R

Structure (SMILES): CCN(C)CCc1c[nH]c2cccc(OC)c12 [reference compound]
- MAO, metabolized or not (R / NR) ([2]; MAO-A): R
- RLM, metabolized or not (R / NR) ([1]; RLM): R

Structure (SMILES): COc1ccc2[nH]cc(CCN(C)C)c2c1 [reference compound]
- MAO, metabolized or not (R / NR) ([2]; MAO-A): R
- RLM, metabolized or not (R / NR) ([1]; RLM): R

Structure (SMILES): CN(C)CCc1c[nH]c2ccc(O)cc12 [reference compound]
- MAO, metabolized or not (R / NR) ([2]; MAO-A): R
- RLM, metabolized or not (R / NR) ([1]; RLM): R

Structure (SMILES): COc1cccc2[nH]cc(CCN(C)C)c12 [reference compound]
- MAO, metabolized or not (R / NR) ([2]; MAO-A): R
- RLM, metabolized or not (R / NR) ([1]; RLM): R

Structure (SMILES): CNCCc1c[nH]c2ccccc12 [reference compound]
- MAO, metabolized or not (R / NR) ([2]; MAO-A): R
- RLM, metabolized or not (R / NR) ([1]; RLM): R

Structure (SMILES): CNCCc1c[nH]c2cccc(O)c12 [reference compound]
- MAO, metabolized or not (R / NR) ([2]; MAO-A): R
- RLM, metabolized or not (R / NR) ([1]; RLM): R
